Laboratory results as given in article PMC4410478, “Larvicidal activity and possible mode of action of four flavonoids and two fatty acids identified in Millettia pinnata seed toward three mosquito species” (Parasites & Vectors, 2015).
Converted amounts (≈) assume the structure as drawn. Like-named read-outs stand apart in the source and are kept apart here.

Key:
[1] = test system: third instar Aedes aegypti larvae; assay: direct-contact mortality bioassay; conditions: for LC50: Aedes aegypti, 24 h, read-out: LC50, mg/L (95% CL)
Protocol: (§1) A direct-contact mortality bioassay was used to evaluate the toxicity of all compounds to third instar larvae from the susceptible and wild mosquito populations. Each compound in acetone (for karanjin) or methanol (for the other compounds) was suspended in distilled water with Triton X-100 (20 μL/L). Groups of 20 mosquito larvae were separately put into paper cups (270 mL) containing each test compound solution (250 mL). The OPs temephos and fenthion served as positive controls and were similarly formulated. Negative controls consisted of the acetone– or methanol–Triton X-100 solution in distilled water. […] Treated and control (acetone– or methanol–Triton X-100 solution only) larvae were held under the same conditions as those used for colony maintenance. […] All treatments were replicated three times using 20 larvae per replicate.
(§2) In separate experiments, the efficacy of the 12 experimental liquid formulations was evaluated, as stated previously. Groups of 20 mosquito larvae were separately put into paper cups containing each test solution. Temephos 200 g/L EC served as a positive control. Negative controls consisted of the ethoxylated castor oil + polyoxyethylene dodecyl mono ether solution in distilled water or water. Mortalities were recorded, as stated previously. All treatments were replicated three times using 20 larvae per replicate.
(§3) Data were corrected for control mortality using Abbott’s formula [36]. The percentages of mortality were transformed to arcsine square-root values for analysis of variance (ANOVA). […] IC50 values and cAMP levels were subjected to ANOVA. The Bonferroni multiple-comparison method was used for comparison of means. Means ± SE of untransformed data are reported. Concentration–mortality data were subjected to probit analysis.

[2] = test system: third instar Culex pipiens pallens larvae; assay: direct-contact mortality bioassay; conditions: for LC50: Culex pipiens, 24 h, read-out: LC50, mg/L (95% CL)
Protocol: as §1, §2, §3

[3] = test system: third instar larvae from wild Aedes albopictus; assay: direct-contact mortality bioassay; conditions: for LC50: Aedes albopictus, 24 h, read-out: LC50, mg/L (95% CL)
Protocol: as §1, §2, §3

[4] = test system: octopamine sensitive adenylate cyclase, whole body homogenate from third instar A. aegypti larvae; assay: Determination of cyclic AMP level (octopamine sensitive adenylate cyclase activity); type: biochemical, Aedes aegypti; conditions: 100 μM test compound; octopamine 100 μM alone as comparator
Protocol: The in vitro octopamine sensitive adenylate cyclase activity was investigated according to the modified method of Pratt and Pryor [35]. The whole bodies of 75 third instar A. aegypti larvae (106.2 mg) were homogenized in 500 μL of 2 mM Tris-maleate buffer (pH 7.4) containing 0.8 mM ethylene glycol tetraacetic acid (EGTA). Adenylate cyclase activity was measured using a cAMP Biotrak Enzyme immunoassay system according to the manufacturer’s instructions. The assay was conducted in a total volume of 100 μL containing 80 mM Tris-maleate buffer, 5 mM theophylline (to inhibit phosphodiesterase activity), 2 mM MgSO4, 0.5 mM adenosine triphosphate (ATP), 0.2 mM EGTA, 50 μL of whole body homogenate (equivalent to 4.22 μg protein), and 1 μL of the test compounds in Tris-maleate buffer containing 0.2% ethanol. After incubation for 5 min at 20°C, the reaction was initiated by the addition of ATP. Incubation was carried out at 30°C for 3 min in a shaking water bath. The reaction was terminated by boiling for 2 min, and then the assay tube was cooled and centrifuged for 10 min at 8000 g. The 50 μL aliquots of the supernatant were assayed for cAMP level.
The polystyrene microplates (1 strip of 8 wells) coated with a goat anti-mouse polyclonal antibody were used. Fifty microliters of primary antibody (mouse monoclonal antibody) solution was added to each well except the blank wells (or the nonspecific binding (NSB) wells). The wells covered with the adhesive strip were incubated for 1 h at 25°C in a shaking incubator (480 rpm), followed by four times washing steps, each with 400 μL of wash buffer. The 50 μL of the test samples for cAMP determination and cAMP standard were added to wells. Control, blank (NSB), and zero standard wells were added with 50 μL of the diluent RD5-55 buffer. The 50 μL of cAMP conjugate (horseradish peroxidase-labeled cAMP) was then added to wells. The plate covered with a new adhesive strip was incubated for 2 h at 25°C on the shaker, followed by the four times washing steps. Then, 200 μL of substrate solution (equal volume of stabilized hydrogen peroxide and stabilized chromogen) was added to each well, and the test plate was incubated for 30 min at 25°C on the benchtop in darkness. Finally, the reaction was stopped by adding 100 μL of stop solution (2 N sulfuric acid) to each well. Optical densities at 450 and 540 nm were measured using the VersaMax microplate reader. The readings at 540 nm were subtracted from the readings at 450 nm. The cAMP concentrations were expressed as nmol/μg protein. Results were expressed as mean ± SE of duplicate samples of three independent experiments.

[5] = test system: different mosquito species larvae; conditions: cited from earlier work
[6] = biological target: AChE from A. aegypti larvae (Aedes aegypti, UniProt A4GND7); assay: Acetylcholinesterase assay (microplate); type: biochemical; conditions: acetylthiocholine iodide hydrolysis at 30°C and pH 8.0
Sequence of AChE from A. aegypti larvae (A4GND7 37-679): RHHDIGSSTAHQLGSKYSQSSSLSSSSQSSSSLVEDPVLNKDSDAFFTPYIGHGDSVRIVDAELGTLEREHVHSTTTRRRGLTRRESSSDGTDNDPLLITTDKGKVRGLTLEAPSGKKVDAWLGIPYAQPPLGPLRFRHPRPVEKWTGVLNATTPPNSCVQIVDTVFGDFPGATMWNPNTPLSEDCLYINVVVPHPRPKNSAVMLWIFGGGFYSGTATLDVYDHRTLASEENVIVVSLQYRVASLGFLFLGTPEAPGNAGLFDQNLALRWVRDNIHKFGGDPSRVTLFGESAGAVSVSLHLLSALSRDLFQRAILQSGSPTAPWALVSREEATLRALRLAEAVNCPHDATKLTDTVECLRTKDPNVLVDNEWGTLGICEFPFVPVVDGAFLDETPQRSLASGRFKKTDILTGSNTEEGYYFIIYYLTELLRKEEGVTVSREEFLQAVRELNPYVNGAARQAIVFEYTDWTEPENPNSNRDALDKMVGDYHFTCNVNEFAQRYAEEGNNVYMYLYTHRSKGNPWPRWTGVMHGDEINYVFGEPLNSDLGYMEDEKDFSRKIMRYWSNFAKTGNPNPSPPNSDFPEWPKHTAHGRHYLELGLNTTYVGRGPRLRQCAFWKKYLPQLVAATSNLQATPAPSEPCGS
Protocol: Third instar larvae of A. aegypti was used in all experiments. […] After filtering through cheese cloth, the homogenate was centrifuged at 1000 g at 4°C for 5 min. The supernatant was used as the acetylcholinesterase (AChE) preparation. Protein content was determined by the Bradford dye method using BSA as the standard. Microplate AChE assay was carried out following the method of Hemingway et al. adapted from Ellman et al.. The reaction mixture consisted of 50 μL of the crude enzyme preparation, 150 μL of 0.1 M phosphate buffer, 20 μL of 3 mM DTNB in phosphate buffer (pH 7.0), and 1 μL of various concentrations of each test compound in ethanol. The reaction mixture was incubated at 30°C for 5 min and 20 μL of 32 mM ATChI was then added to the mixture. After incubation for 30 min, the reaction was stopped by adding 20 μL of 5 mM eserine salicylate. The absorbance was recorded at 412 nm using a VersaMax microplate reader (Molecular Devices, Sunnyvale, CA). Results were expressed as mean ± SE of triplicate samples of three independent experiments.
IC50 values and cAMP levels were subjected to ANOVA. […] Means ± SE of untransformed data are reported. Concentration–mortality data were subjected to probit analysis.

| Compound | LC50 [1] | LC50 [2] | LC50 [3] | also measured |
| --- | --- | --- | --- | --- |
| CC/C=C\C/C=C\C/C=C\CCCCCCCC(=O)O [Linolenic acid, linolenic acid] | 22.6 mg/L (≈ 81.1 µM) | 21.3 mg/L (≈ 76.6 µM) | 71.3 mg/L (≈ 256 µM) | cAMP level compared with that induced by octopamine [4]: significantly higher than that induced by octopamine |
| pongamol [Pongamol (5)] |  |  |  | LC50, mg/L (95% CL) ([1]; compounds, third instar Aedes aegypti larvae, 24 h exposure): 25.76 (22.44–29.35) mg/L; LC50, mg/L (95% CL) ([2]; compounds, third instar Culex pipiens pallens larvae, 24 h exposure): 23.95 (20.68–27.34) mg/L; LC50, mg/L (95% CL) ([3]; compounds, third instar larvae from wild Aedes albopictus, 24 h exposure): 56.14 (49.50–64.69) mg/L |
| COc1c(-c2ccccc2)oc2c3c(ccc2c1=O)OC(C)(C)C=C3 [Karanjachromene (2), karanjachromene] | 20.6 mg/L (≈ 61.5 µM) | 18.7 mg/L (≈ 56 µM) | 53 mg/L (≈ 158 µM) |  |
| CCOC(=O)C=Cc1ccc(OC)cc1 [ethyl p-methoxycinnamate] |  |  |  | LC50 ([5]; phenylpropanoids): 20.7 µg/mL (≈ 100 µM) |
| C/C=C/c1ccc2c(c1)[C@@H](C)[C@H](c1ccc(O)cc1)O2 [conocarpan] |  |  |  | LC50 ([5]; neolignans): < 10 µg/mL |
| eupomatenoid-5 |  |  |  | LC50 ([5]; neolignans): < 10 µg/mL |
| CC(C)=CCOc1c2occc2cc2ccc(=O)oc12 [imperatorin] |  |  |  | LC50 ([5]; coumarins): 2.88 µg/mL (≈ 10.7 µM) |
| N#C[C@@H](O[C@@H]1O[C@H](CO)[C@@H](O)[C@H](O)[C@H]1O)c1ccc(O)cc1 [dhurrin] |  |  |  | LC50 ([5]; cyanogenic glycoside): 1.12 µg/mL (≈ 3.6 µM) |
| piperonaline |  |  |  | LC50 ([5]; alkaloid): 0.21 to 0.25 µg/mL |
| O=C1C=CC[C@H](/C=C/c2ccccc2)O1 [goniothalmin] |  |  |  | LC50 ([5]; lactone): 0.87 to 25.95 µg/mL |
| COP(=S)(OC)Oc1ccc(Sc2ccc(OP(=S)(OC)OC)cc2)cc1 [Temephos, temephos, reference compound] | 0.015 mg/L (≈ 0.0322 µM) | 0.013 mg/L (≈ 0.0279 µM) | 0.01 mg/L (≈ 0.0214 µM) |  |
| COC1=C[C@@H](C)[C@@H]2C[C@H]3OC(=O)C[C@H]4C(C)=C(OC)C(=O)[C@H]([C@@]2(C)C1=O)[C@@]34C [quassin] |  |  |  | LC50 ([5]; terpenoid): 6.0 µg/mL (≈ 15.4 µM) |
| CCCCC/C=C\C/C=C\CCCCCCCC(=O)O [Linoleic acid, linoleic acid] | 21.3 mg/L (≈ 75.9 µM) | 20.1 mg/L (≈ 71.8 µM) | 68.9 mg/L (≈ 246 µM) | cAMP level compared with that induced by octopamine [4]: significantly higher than that induced by octopamine |
| CCCCCCCCCCCCCCCCCC(=O)O [Stearic acid, stearic acid] | > 200 mg/L | > 200 mg/L | > 200 mg/L |  |
| CCCCCCCCCCCCCCCCCCCC(=O)O [Arachidic acid, arachidic acid] |  |  |  | cAMP level compared with that induced by octopamine [4]: significantly higher than that induced by octopamine |
| C=C[C@H](O)C#CC#CC/C=C\CCCCCCC [falcarinol] |  |  |  | LC50 ([5]; acetylenic alcohols): 3.49 µg/mL (≈ 14.3 µM) |
| CCCCCCCC/C=C\CCCCCCCC(=O)O [Oleic acid (3), oleic acid] | 18.4 mg/L (≈ 65.3 µM) | 18.1 mg/L (≈ 64 µM) | 18.8 mg/L (≈ 66.5 µM) | cAMP level compared with that induced by octopamine [4]: significantly lower than that induced by octopamine |
| C=C1CC[C@H]2C(C)(C)CCC[C@]2(C)[C@H]1C/C=C(/C=O)CC=O [labda-8(17)-diene-15,16-dial] |  |  |  | LC50 ([5]; terpenoid): < 10 µg/mL |

| Compound | LC50 [1] | LC50 [2] | LC50 [3] | also measured |
| --- | --- | --- | --- | --- |
| COP(=S)(OC)Oc1ccc(SC)c(C)c1 [Fenthion, fenthion, reference compound] | 0.022 mg/L (≈ 0.079 µM) | 0.027 mg/L (≈ 0.097 µM) | 0.033 mg/L (≈ 0.119 µM) |  |
| O=c1c2c(oc3c1ccc1occc13)COc1ccccc1-2 [Pongarotene (6), pongarotene] | 37.6 mg/L (≈ 130 µM) | 25.5 mg/L (≈ 87.9 µM) | 65 mg/L (≈ 224 µM) |  |
| CCCCCCCC/C=C/CCCCCCCC(=O)O [Elaidic acid, elaidic acid] | 32.2 mg/L (≈ 114 µM) | 28.2 mg/L (≈ 99.9 µM) | 66.3 mg/L (≈ 235 µM) | cAMP level compared with that induced by octopamine [4]: significantly higher than that induced by octopamine |
| C/C=C/c1cc(OC)c(OC)cc1OC [α-asarone] |  |  |  | LC50 ([5]; phenylpropanoids): 26.99 µg/mL (≈ 130 µM) |
| CCCCC/C=C\C/C=C\CCCCCCCC(=O)OCC [Ethyl linoleate, ethyl linoleate] | > 200 mg/L | > 200 mg/L | > 200 mg/L |  |
| CCCCOCc1ccc(O)cc1 [4-butoxymethylphenol] |  |  |  | LC50 ([5]; phenol): 0.05 µg/mL (≈ 0.277 µM) |
| COc1c(-c2ccccc2)oc2c(ccc3occc32)c1=O [Karanjin (1), karanjin] | 16.1 mg/L (≈ 55.2 µM) | 14.6 mg/L (≈ 50 µM) | 35.3 mg/L (≈ 121 µM) |  |
| CC#CC#CC(=O)c1ccccc1 [capillin] |  |  |  | LC50 ([5]; polyacetylene): < 10 µg/mL |
| CCCCC/C=C\C/C=C\CCCCCCCC(=O)OC [Methyl linoleate, methyl linoleate] | > 200 mg/L | > 200 mg/L | > 200 mg/L |  |
| CCCCCCCC/C=C\CCCCCCCC(=O)OC [Methyl oleate, methyl oleate] | > 200 mg/L | > 200 mg/L | > 200 mg/L |  |
| C=C[C@@H](O)C#CC#C[C@@H](O)/C=C\CCCCCCC [falcarindiol] |  |  |  | LC50 ([5]; acetylenic alcohols): 6.51 µg/mL (≈ 25 µM) |
| COc1ccc2ccc(=O)oc2c1CC=C(C)C [osthole] |  |  |  | LC50 ([5]; coumarins): 3.14 µg/mL (≈ 12.9 µM) |
| CCOC(=O)/C=C/c1ccccc1 [ethyl cinnamate] |  |  |  | LC50 ([5]; phenylpropanoids): 12.3 µg/mL (≈ 69.8 µM) |
| C/C=C/c1ccc2oc(-c3ccc(O)cc3)c(C)c2c1 [eupomatenoid-6] |  |  |  | LC50 ([5]; neolignans): < 10 µg/mL |
| CCCCCCCCCCCCCCCC(=O)O [Palmitic acid (4), palmitic acid] | 43 mg/L (≈ 168 µM) | 34.5 mg/L (≈ 135 µM) | 85.6 mg/L (≈ 334 µM) | AChE inhibition IC50 [6]: lowest of any of the compounds examined; cAMP level compared with that induced by octopamine [4]: significantly lower than that induced by octopamine |
| CCCCCCCC/C=C\CCCCCCCC(=O)OCC [Ethyl oleate, ethyl oleate] | > 200 mg/L | > 200 mg/L | > 200 mg/L |  |
| CCCCCCCCCCCCCCCCCCCCCC(=O)O [Behenic acid, behenic acid] | 86.8 mg/L (≈ 255 µM) | 68.8 mg/L (≈ 202 µM) | 105 mg/L (≈ 309 µM) | cAMP level compared with that induced by octopamine [4]: significantly higher than that induced by octopamine |
